Data on seven compounds can be found in ChEMBL document CHEMBL1126814, “Oxindole N-Methyl-D-Aspartate (NMDA) antagonists” (Bioorg Med Chem Lett, 1993).

In experiment [1] the target is T1, Adrenergic receptor alpha-1 (Rattus norvegicus, UniProt P15823+P23944+P43140).
T1 sequence (P15823 whole entry): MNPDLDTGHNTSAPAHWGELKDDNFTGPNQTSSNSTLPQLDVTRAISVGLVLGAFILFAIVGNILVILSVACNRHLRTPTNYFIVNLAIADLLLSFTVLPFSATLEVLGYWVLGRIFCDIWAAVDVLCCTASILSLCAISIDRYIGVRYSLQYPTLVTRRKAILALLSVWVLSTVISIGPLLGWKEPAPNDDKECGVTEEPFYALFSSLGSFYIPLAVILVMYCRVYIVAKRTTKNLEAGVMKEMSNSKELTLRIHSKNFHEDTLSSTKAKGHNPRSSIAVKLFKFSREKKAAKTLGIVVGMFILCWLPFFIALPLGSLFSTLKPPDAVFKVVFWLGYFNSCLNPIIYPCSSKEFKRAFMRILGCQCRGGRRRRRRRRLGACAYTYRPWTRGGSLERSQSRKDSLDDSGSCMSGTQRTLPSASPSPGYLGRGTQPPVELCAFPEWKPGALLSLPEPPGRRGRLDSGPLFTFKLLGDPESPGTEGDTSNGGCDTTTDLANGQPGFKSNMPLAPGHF
T1 sequence (P23944 whole entry): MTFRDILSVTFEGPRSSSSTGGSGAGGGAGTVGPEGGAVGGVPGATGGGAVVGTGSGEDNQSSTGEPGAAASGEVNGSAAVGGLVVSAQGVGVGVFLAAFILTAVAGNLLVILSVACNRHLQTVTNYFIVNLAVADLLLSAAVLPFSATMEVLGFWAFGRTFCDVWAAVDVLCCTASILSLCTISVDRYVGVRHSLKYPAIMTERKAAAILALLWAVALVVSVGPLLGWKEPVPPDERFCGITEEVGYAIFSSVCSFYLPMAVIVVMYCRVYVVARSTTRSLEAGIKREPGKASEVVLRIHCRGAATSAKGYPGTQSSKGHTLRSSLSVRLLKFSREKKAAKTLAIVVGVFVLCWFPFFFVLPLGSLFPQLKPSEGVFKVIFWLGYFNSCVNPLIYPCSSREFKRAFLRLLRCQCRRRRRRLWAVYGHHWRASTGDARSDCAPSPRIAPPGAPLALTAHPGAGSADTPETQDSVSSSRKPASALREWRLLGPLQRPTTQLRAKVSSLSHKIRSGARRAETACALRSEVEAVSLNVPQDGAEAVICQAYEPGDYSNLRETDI
T1 sequence (P43140 whole entry): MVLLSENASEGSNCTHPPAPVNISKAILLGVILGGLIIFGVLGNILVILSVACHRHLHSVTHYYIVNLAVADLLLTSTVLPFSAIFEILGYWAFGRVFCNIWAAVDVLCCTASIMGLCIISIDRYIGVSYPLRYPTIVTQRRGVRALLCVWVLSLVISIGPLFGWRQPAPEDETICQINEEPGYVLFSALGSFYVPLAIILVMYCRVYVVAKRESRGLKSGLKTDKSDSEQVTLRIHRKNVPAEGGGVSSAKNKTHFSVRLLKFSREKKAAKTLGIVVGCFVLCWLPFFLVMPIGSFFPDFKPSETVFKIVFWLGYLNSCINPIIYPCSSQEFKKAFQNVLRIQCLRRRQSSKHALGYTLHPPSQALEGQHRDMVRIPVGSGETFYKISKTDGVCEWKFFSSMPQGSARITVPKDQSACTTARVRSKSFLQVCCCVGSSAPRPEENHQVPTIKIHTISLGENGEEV
In words: Tested for the Alpha-1 adrenergic receptor affinity in a standard radioligand binding assay with [3H]- prazosin. Format: protein assay.

The nature of experiment [2]: Ratio of the IC50s of the two assays (alpha1 adrenoceptor binding assay/GT functional assay) used as an estimate of Therapeutic Index.

Take `C[C@@H]([C@@H](O)c1ccc2c(c1)CC(=O)N2)N1CCC(Cc2ccccc2)CC1`: the IC50 in experiment [1] amounted to 710 nM. In experiment [2], the TI is 6.4.

Compound `C[C@@H]([C@H](O)c1ccc(O)cc1)N1CCC(Cc2ccccc2)CC1` [(R,S)-IFENPRODIL] displayed an IC50 in experiment [1] of 100 nM. In addition, the TI in experiment [2] is 0.38.

The compound `C[C@@H]([C@@H](O)c1ccc2c(c1)CC(=O)N2)N1CCC(c2ccccc2)CC1` registered an IC50 in experiment [1] of 349 nM. In experiment [2], the TI is 8.7.

Turning to `OC(CN1CCC(Cc2ccc(F)cc2)CC1)c1ccc(Cl)cc1` (stereo not drawn) [ELIPRODIL], the IC50 in experiment [1] was 800 nM. Moreover, the TI in experiment [2] is 0.8.

Turning to `C[C@@H]([C@H](O)c1ccc2c(c1)CC(=O)N2)N1CCC(Cc2ccccc2)CC1`, the IC50 in experiment [1] was 100 nM. In addition, the TI in experiment [2] is 0.4.

Compound `O=C1Cc2cc(C(O)CN3CCC(Cc4ccc(F)cc4)CC3)ccc2N1` (stereo not drawn) displayed an IC50 in experiment [1] of 183 nM. For the same compound, the TI in experiment [2] is 0.3.

As for `C[C@@H]([C@@H](O)c1ccc(O)cc1)N1CCC(Cc2ccccc2)CC1`, the TI in experiment [2] is 15.3.
